Data on 39 molecules can be found in patent US20060223879A1, “Non-steroidal farnesoid x receptor modulators” (priority 2002, published 2006).

Entries after “also recorded” stand apart in the source; their conditions may differ. Where two headings read alike, the source gives them in different places. Some results are limits rather than exact numbers.

This test has as its target T1, FXR (Homo sapiens, UniProt Q96RI1).
T1 construct: using a full length FXR on a natural response element; expressed in transfected cells
T1 sequence (Q96RI1 1-486): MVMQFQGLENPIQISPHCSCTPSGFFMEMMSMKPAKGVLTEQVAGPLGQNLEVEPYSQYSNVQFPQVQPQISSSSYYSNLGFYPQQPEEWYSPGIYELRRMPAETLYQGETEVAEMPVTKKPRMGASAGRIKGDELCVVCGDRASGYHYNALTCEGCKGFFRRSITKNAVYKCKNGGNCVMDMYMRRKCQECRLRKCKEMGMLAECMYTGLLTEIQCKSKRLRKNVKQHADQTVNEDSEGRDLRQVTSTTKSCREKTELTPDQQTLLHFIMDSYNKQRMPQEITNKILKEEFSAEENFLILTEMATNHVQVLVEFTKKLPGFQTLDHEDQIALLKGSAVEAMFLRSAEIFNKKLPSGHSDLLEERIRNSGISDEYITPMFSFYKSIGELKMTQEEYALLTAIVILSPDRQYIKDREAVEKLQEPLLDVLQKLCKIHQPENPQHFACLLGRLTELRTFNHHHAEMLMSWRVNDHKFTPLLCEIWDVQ
Put plainly: cell-based transcription assay, FXR responsive promoter linked to a luciferase reporter. Also noted: RE: scale not given here. The note with it: for EC50: FXR activation, read-out: EC50; for EC50 / FXR activation (in words): cell-based reporter assay; for RE: RE not defined in the source. The text has this:
In addition to ensuring that only cell permeable compounds were selected for further optimization, this approach allows for the detection of FXR activation in a natural system (i.e., correct folding of the protein and in the presence of a complete compliment of co-activators and co-repressors).
The feasibility of creating high throughput screens (XIS) for ORs was explored using FXR as a candidate orphan receptor (OR) with a known activator, chenodeoxycholic acid (CDCA) as a ligand. The screen is based on the co-transfection of a full-length receptor with the reporter vector containing a natural hormone response element under a minimal eukaryotic promoter. […] Using this 384-well format, the high throughput screening (HTS) approach to FXR as a candidate OR was employed. […] A central question in the feasibility studies is whether this library is suitable for screening for nuclear receptor ligands. Samples of this library were first reformatted into a 384-well format and then subjected to the FXR cell-based assays described above and assessed for FXR-mediated transcriptional activity. Cells were exposed to approximately 10 μM of sample for 18 hrs prior to washing and luciferase analysis.
EC50 values were determined with Prism 3.0 software via the activity of the subject compound in the previously described cell based assay.
On the technique in general: Reporter assays use an easily measured gene product as a stand-in for the process of interest.

`CC(C)(C)OC(=O)/C=C/c1cccc(N(Cc2ccc(CCC(=O)OC(C)(C)C)cc2)C(=O)C2CCCCC2)c1` [Compound 160]: where the note is “Tables 1-15”, the half-maximal effective concentration (EC50) (as a rule, the concentration that produces a half-maximal response) is over 1000 nM and the RE amounted to 0.84.
As to `COC(=O)C=Cc1cccc(N(Cc2ccc(C=CC(=O)OC(C)(C)C)cc2O)C(=O)C2CCCCC2)c1` [Compound 161], under “Tables 1-15”, the EC50 is over 1000 nM and the RE stood at 0.12.
`COC(=O)C=Cc1cccc(N(Cc2ccc(C=CC(=O)OC(C)(C)C)cc2OC)C(=O)C2CCCCC2)c1` [Compound 162]: where the note is “Tables 1-15”, the EC50 was over 1000 nM and the RE was 0.14.
As for `COC(=O)C=Cc1cccc(N(Cc2ccc(C=CC(=O)OC(C)(C)C)cc2OCc2ccccc2)C(=O)C2CCCCC2)c1` [Compound 163], for the setting “Tables 1-15”, the EC50 was over 1000 nM and the RE was 0.38.
Turning to `COC(=O)C=Cc1cccc(N(Cc2ccc(C=CC(=O)OC(C)(C)C)cc2OC(C)=O)C(=O)C2CCCCC2)c1` [Compound 164], where the note is “Tables 1-15”, the EC50 is over 1000 nM and the RE came to 0.16.
As to `COC(=O)C=Cc1cccc(N(Cc2ccc(C=CC(=O)OC(C)(C)C)cc2OC(=O)c2ccccc2)C(=O)C2CCCCC2)c1` [Compound 165], under “Tables 1-15”, the EC50 was over 1000 nM and the RE is reported as 0.16.
With `COC(=O)C=Cc1cccc(N(Cc2ccc(C=CC(=O)OC(C)(C)C)cc2OS(C)(=O)=O)C(=O)C2CCCCC2)c1` [Compound 166], under “Tables 1-15”, the EC50 is over 1000 nM and the RE is reported as 0.16.
As for `CCOC(=O)COc1cc(C=CC(=O)OC(C)(C)C)ccc1CN(C(=O)C1CCCCC1)c1cccc(C=CC(=O)OC)c1` [Compound 167], for the setting “Tables 1-15”, the EC50 was over 1000 nM and the RE was 0.16.
Consider `COC(=O)/C=C/c1cccc(N(Cc2ccc(/C=C/c3ccc(C)cc3)cc2)C(=O)C2CCCCC2)c1` [Compound 174], for which the “FXR activation (in words)” value was “among the least active”. Where the note is “Tables 1-15”, the EC50 was 342 nM and the RE is on record as 0.83.
`COC(=O)/C=C/c1cccc(N(Cc2ccc(/C=C/c3ccc(C)cc3)cc2)C(=O)C(C)C)c1` [Compound 175] registered an RE (Tables 1-15) of 0.37.
Where the note is “Tables 1-15”, `COC(=O)/C=C/c1cccc(N(Cc2ccc(/C=C/c3ccc(C)cc3)cc2)C(=O)NC(C)C)c1` [Compound 176] registered an RE of 0.10.
On to `COC(=O)/C=C/c1cccc(N(Cc2ccc(/C=C/c3c(Cl)cccc3Cl)cc2)C(=O)C2CCCCC2)c1` [Compound 177], for which the “FXR activation (in words)” value is on record as “excellent activity”. Where the note is “Tables 1-15”, the EC50 turned out to be 150 nM and the RE is on record as 0.12.
With `COC(=O)/C=C/c1cccc(N(Cc2ccc(/C=C/c3c(Cl)cccc3Cl)cc2)C(=O)C(C)C)c1` [Compound 178], for the setting “Tables 1-15”, the EC50 worked out at 195 nM and the RE is listed as 0.14.
In the case of `COC(=O)/C=C/c1cccc(N(Cc2ccc(/C=C/c3c(Cl)cccc3Cl)cc2)C(=O)NC(C)C)c1` [Compound 179], the RE (Tables 1-15) came out at 0.15.
As for `COC(=O)C=Cc1cccc(N(Cc2ccc(C=Cc3cccc(Cl)c3)cc2)C(=O)C2CCCCC2)c1` [Compound 180], the “FXR activation (in words)” value was “excellent activity”. Moreover, where the note is “Tables 1-15”, the EC50 is 165 nM and the RE was 1.41.
Turning to `COC(=O)/C=C/c1cccc(N(Cc2ccc(/C=C/c3cccc(Cl)c3)cc2)C(=O)C(C)C)c1` [Compound 181], the “FXR activation (in words)” value is “excellent activity”. Further, where the note is “Tables 1-15”, the EC50 turned out to be 264 nM and the RE is 1.09.
For `COC(=O)/C=C/c1cccc(N(Cc2ccc(/C=C/c3cccc(Cl)c3)cc2)C(=O)NC(C)C)c1` [Compound 182], where the note is “Tables 1-15”, the EC50 amounted to 339 nM and the RE is listed as 0.58.
With `COC(=O)/C=C/c1cccc(N(Cc2ccc(/C=C/c3cc(C(F)(F)F)cc(C(F)(F)F)c3)cc2)C(=O)C(C)C)c1` [Compound 184], under “Tables 1-15”, the half-maximal effective concentration (EC50) came out at 1950 nM and the RE came out at 0.13.
In the case of `COC(=O)/C=C/c1cccc(N(Cc2ccc(/C=C/c3cc(C(F)(F)F)cc(C(F)(F)F)c3)cc2)C(=O)NC(C)C)c1` [Compound 185], for the setting “Tables 1-15”, the EC50 is 1830 nM and the RE was determined as 0.13.
In the same order, the values of `COC(=O)/C=C/c1cccc(N(Cc2ccc(/C=C/c3cccc(C(F)(F)F)c3)cc2)C(=O)C(C)C)c1` [Compound 187] are 267 nM and 0.70.
In the case of `COC(=O)C=Cc1cccc(N(Cc2ccc(C=Cc3c(F)cccc3F)cc2)C(=O)C2CCCCC2)c1` [Compound 189], the “FXR activation (in words)” value was “excellent activity”. Besides, under “Tables 1-15”, the EC50 was 174 nM and the RE is 0.94.
For the molecule `COC(=O)/C=C/c1cccc(N(Cc2ccc(/C=C/c3c(F)cccc3F)cc2)C(=O)NC(C)C)c1` [Compound 191], where the note is “Tables 1-15”, the half-maximal effective concentration (EC50) is 4020 nM and the RE stood at 0.21.
Consider `COC(=O)C=Cc1cccc(N(Cc2ccc(C=Cc3ccccc3F)cc2)C(=O)C2CCCCC2)c1` [Compound 192], for which the “FXR activation (in words)” value was “excellent activity; also recorded: among the most active”. Further, where the note is “Tables 1-15”, the EC50 turned out to be 64 nM and the RE is 1.41.
`COC(=O)/C=C/c1cccc(N(Cc2ccc(/C=C/c3ccccc3F)cc2)C(=O)C(C)C)c1` [Compound 193]: the “FXR activation (in words)” value is given as “excellent activity”. For the setting “Tables 1-15”, the EC50 is 70 nM and the RE was determined as 1.17.
For `COC(=O)/C=C/c1cccc(N(Cc2ccc(/C=C/c3ccccc3F)cc2)C(=O)NC(C)C)c1` [Compound 194], where the note is “Tables 1-15”, the EC50 is 431 nM and the RE is on record as 0.89.
Turning to `COC(=O)C=Cc1cccc(N(Cc2ccc(C=Cc3c(C)cc(C)cc3C)cc2)C(=O)C2CCCCC2)c1` [Compound 195], the “FXR activation (in words)” value is recorded as “among the least active”. Under “Tables 1-15”, the EC50 was 518 nM and the RE is on record as 0.24.
Turning to `COC(=O)/C=C/c1cccc(N(Cc2ccc(/C=C/c3c(C)cc(C)cc3C)cc2)C(=O)C(C)C)c1` [Compound 196], under “Tables 1-15”, the EC50 stood at 149 nM and the RE is listed as 0.30.
On the same counts, the results for `COC(=O)/C=C/c1cccc(N(Cc2ccc(/C=C/c3c(C)cc(C)cc3C)cc2)C(=O)NC(C)C)c1` [Compound 197] are 431 nM and 0.14.
Turning to `COC(=O)/C=C/c1cccc(N(Cc2ccc(/C=C/c3ccccc3)cc2)C(=O)C(C)C)c1` [Compound 198], the “FXR activation (in words)” value is recorded as “excellent activity”. In addition, where the note is “Tables 1-15”, the EC50 amounted to 65 nM and the RE is 1.33.
In the case of `COC(=O)/C=C/c1cccc(N(Cc2ccc(/C=C/c3ccccc3)cc2)C(=O)NC(C)C)c1` [Compound 200], under “Tables 1-15”, the EC50 stood at 119 nM and the RE turned out to be 1.38.
As to `COC(=O)C=Cc1cccc(N(Cc2ccc(C=Cc3cccc(F)c3)cc2)C(=O)C2CCCCC2)c1` [Compound 201], the “FXR activation (in words)” value is “excellent activity; also recorded: among the most active”. Where the note is “Tables 1-15”, the EC50 was determined as 86 nM and the RE was 1.38.
As to `COC(=O)/C=C/c1cccc(N(Cc2ccc(/C=C/c3cccc(F)c3)cc2)C(=O)C(C)C)c1` [Compound 202], the “FXR activation (in words)” value was “excellent activity”. For the same molecule, under “Tables 1-15”, the EC50 was 71 nM and the RE was 1.33.
Turning to `COC(=O)/C=C/c1cccc(N(Cc2ccc(/C=C/c3cccc(F)c3)cc2)C(=O)NC(C)C)c1` [Compound 203], for the setting “Tables 1-15”, the EC50 amounted to 467 nM and the RE is 0.61.
With `COC(=O)C=Cc1cccc(N(Cc2ccc(C=Cc3ccc(F)cc3)cc2)C(=O)C2CCCCC2)c1` [Compound 204], the “FXR activation (in words)” value is “excellent activity; also recorded: among the most active”. Moreover, under “Tables 1-15”, the EC50 stood at 185 nM and the RE was 0.53.
For the molecule `COC(=O)/C=C/c1cccc(N(Cc2ccc(/C=C/c3ccc(F)cc3)cc2)C(=O)C(C)C)c1` [Compound 205], the “FXR activation (in words)” value was “excellent activity”. The RE (Tables 1-15) worked out at 1.19.
On to `COC(=O)/C=C/c1cccc(N(Cc2ccc(/C=C/c3ccc(F)cc3)cc2)C(=O)NC(C)C)c1` [Compound 206], for which, for the setting “Tables 1-15”, the EC50 stood at 348 nM and the RE came out at 0.91.
`COC(=O)C=Cc1cccc(N(Cc2ccc(C=Cc3ccccn3)cc2)C(=O)C2CCCCC2)c1` [Compound 207]: the 50% effective concentration (EC50) worked out at 309 nM. Besides, the RE (Tables 1-15) was 0.61.
Take `COC(=O)C=Cc1cccc(N(Cc2ccc(C=Cc3ccccn3)cc2)C(=O)C(C)C)c1` [Compound 208]: for the setting “Tables 1-15”, the 50% effective concentration (EC50) turned out to be 310 nM and the RE is reported as 0.62.
In the case of `COC(=O)C=Cc1cccc(N(Cc2ccc(C=Cc3ccccn3)cc2)C(=O)NC(C)C)c1` [Compound 209], for the setting “Tables 1-15”, the EC50 turned out to be 575 nM and the RE turned out to be 0.68.
